According to patent publication US20160000911A1, “COMBINATION THERAPY OF A TYPE II ANTI-CD20 ANTIBODY WITH INCREASED ANTIBODY DEPENDENT CELLULAR CYTOTOXITY (ADCC)” (ROCHE GLYCART AG, priority 2008, published 2016):

Tests used:
[1] = system: WSU-DLCL2 human B-Cell Non-Hodgkin-Lymphoma (NHL); experiment: Tumor growth inhibition study in vivo, WSU-DLCL2 xenograft (Example 1); design: species or system SCID beige mice
Excerpt: Antibody buffer included histidine, trehalose and polysorbate 20.
Cyclophposphamide and vincristine were purchased as clinical formulation from Baxter Oncology GmbH, Halle, Germany or medac, Gesellschaft für klinische Spezialpräparate mbH, Hamburg, Germany, respectively. Dilution was adjusted from reconstituted stock solution.
WSU-DLCL2 human Non-Hodgkin-Lymphoma (NHL) cells were kindly provided from Hoffmann-La Roche, Inc., Nutley, N.J., USA. […] Passage 4 was used for transplantation. Cells were co-injected with Matrigel.
Continuous health monitoring was carried out on regular basis.
Animal treatment started at the day of randomisation 9 days after cell transplantation. […] The corresponding vehicle was administered on the same days. Cyclophosphamide and vincristine were given i.v. once weekly on day 9, 15, 23, 30, 37, 44, 51 and 58 at 25 mg/kg or 0.25 mg/kg, respectively. In the combination therapy groups, both antibodies were administered 24 hours after the chemotherapeutic agents on day 10, 16, 24, 31, 38, 45, 52 and 59.

[2] = molecular target: T1, CD20 on Raji cells (ATCC-No. CCL-86) (Homo sapiens, UniProt P11836); experiment: Ratio of the binding capacities to CD20 on Raji cells compared to rituximab (direct immunofluorescence, Cy5, FACSArray); details: MFI at EC50 of Cy5-labeled antibodies, 30 min at 4° C.
T1 construct: generated by direct immunofluorescence using the Burkitt's lymphoma cell line Raji (ATCC-No. CCL-86); host or cells: Raji (Burkitt's lymphoma cell line)
T1 sequence (P11836 1-297): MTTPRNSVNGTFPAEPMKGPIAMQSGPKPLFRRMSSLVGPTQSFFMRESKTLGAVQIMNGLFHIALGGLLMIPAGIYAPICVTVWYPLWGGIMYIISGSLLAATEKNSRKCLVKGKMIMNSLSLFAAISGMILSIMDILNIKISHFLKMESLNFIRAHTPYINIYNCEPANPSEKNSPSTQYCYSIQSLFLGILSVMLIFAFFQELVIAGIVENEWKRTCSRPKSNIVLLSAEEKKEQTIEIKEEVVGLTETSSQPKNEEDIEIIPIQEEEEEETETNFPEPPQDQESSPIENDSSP
Procedure: MFI is the mean fluorescent intensity. The “Cy5-labeling ratio” as used herein means the number of Cy5-label molecules per molecule antibody.
Raji cells (ATCC-No. CCL-86) were maintained in culture in RPMI-1640 medium (PanBiotech GmbH, Cat.-No. PO4-18500) containing 10% FCS (Gibco, Cat.-No. 10500-064). […] 5*10^5 cells per sample were stained for 30 min at 4° C. Afterwards, cells were washed in culture medium. Propidium iodide (PI) staining was used to exclude dead cells.
Then the ratio of the binding capacities to CD20 on Raji cells (ATCC-No. CCL-86) is calculated according to the following formula: […]

Substance: anti-CD20 antibody B-HH6-B-KV1 GE: Type II anti-CD20 antibody; humanized B-Ly1, glycoengineered B-HH6-B-KV1 with increased ADCC (WO 2005/044859, WO 2007/031875)
- tumor growth inhibition ([1]; day 35 after cell transplantation, compared to the control group, i.v. once weekly, antibodies 30 mg/kg, cyclophosphamide 25 mg/kg, vincristine 0.25 mg/kg): 85%
- Tumor growth delay, T − C value ([1]; median time to reach 1500 mm^3, treatment minus control, until day 64 after cell transplantation): 19 days
- binding capacity to CD20 on Raji cells compared to rituximab [2]: reduces binding capacity
